Data on ten compounds can be found in patent US20220064141A1, “BENZOPYRIDONE HETEROCYCLIC COMPOUND AND USE THEREOF” (BrightGene Bio-Medical Technology Co., Ltd., priority 2019, published 2022).

Holding throughout (type): cell-based
Assay [1] relates to NCI-H358 human non-small cell lung cancer cell with KRAS G12C mutation. Nature of the assay: Cell Titer-Glo cell viability, NCI-H358 cells (72 h). Conditions: Homo sapiens. An outline of the steps: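 NCI-H358 (KRAS G12C) cells in DMEM with 10% FBS, seeded and left overnight at 37 °C, then treated 72 h with compound at 30 μM to 0.01 nM final. Viability from ATP content with Cell Titer-Glo after 1-4 h incubation at 37 °C; […].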

Assay [2] relates to HCT116 human colon cancer cells with high expression of KRAS G13D. Nature of the assay: Cell Titer-Glo cell viability, HCT116 cells (72 h). Conditions: HCT-116. The source says: (§1) Effect Example 2: Pharmacodynamic Assay 2 (Determination of the efficacy of the compounds of the present disclosure on HCT116 human colon cancer cells with high expression of KRAS G13D and A549 human non-small cell lung cancer cells with high expression of KRAS G12S)
(§2) The following method was used to determine the effects of the compounds of the present disclosure on tumor cell proliferation.
(§3) For KRAS G13D subtype, HCT116 human colon cancer cell was used. For KRAS G12S subtype, A549 human non-small cell lung cancer cell was used. The efficacy of the compounds in inhibiting cancer cell viability was determined. HCT116 cells or A549 cells were cultured in a DMEM medium containing 10% fetal bovine serum, 100 U penicillin and […] streptomycin. The cells were cultured in an incubator with 5% CO2 at 37° C. Cancer cell viability was evaluated by determining the content of ATP with Cell Titer-Glo® kit (Luminescent Cell Viability Assay kit, please refer to the manufacturer's instructions for use) and evaluating the inhibition of cell growth.
(§4) The experimental method was proceeded in accordance with the steps in the instructions for the kit, and was described briefly as follows. The test compounds were first dissolved in DMSO to prepare stock solutions, and then the stock solutions were subjected to gradient dilution with the culture media of the corresponding cells, thereby preparing test samples. The final concentrations of the compounds were in the range of 30 μM to 0.01 nM. Tumor cells in logarithmic growth phase were seeded into a 96-well cell culture plate at an appropriate density. After the cell culture plate was left overnight in an incubator with 5% CO2 at 37° C., the test compound samples were added thereto and then the cells were further cultured for 72 hours. After the incubation was complete, an appropriate volume of Cell Titer-Glo® reagent was added into each well, and the cells were incubated at 37° C. for 1 to 4 hours. Then, the […] was read on a microplate reader. The percentage inhibition rates of the compounds at each concentration point were calculated by comparing the absorbance values of the sample wells with that of the control group (0.3% DMSO), and then non-linear regression analysis of the concentration of the compound vs inhibition rate was performed by using GraphPad Prism 5 software, thereby obtaining IC50 values indicating the inhibitory effects of the compounds on cell proliferation.

The test system of assay [3] is A549 human non-small cell lung cancer cells with high expression of KRAS G12S. Nature of the assay: Cell Titer-Glo cell viability, A549 cells (72 h).
From the text: as §1, §2, §3, §4

As for `C=CC(=O)N1CCN(c2ncnc3c(F)c(-c4c(O)cccc4F)c(Cl)cc23)CC1` [ARS-1620, reference compound], the IC50 in assay [1] (numeric values) is 226 nM; in assay [2], greater than 3000 nM; in assay [3], greater than 3000 nM.

Consider `C=CC(=O)N1CCN(c2c(C#N)c(=O)n(-c3ccccc3C(C)C)c3cc(-c4c(C)ccc5[nH]ncc45)c(Cl)cc23)CC1` [Compound I-1], for which the IC50 in assay [1] (NCI-H358, 72 h, numeric values) is 1170 nM; in assay [2], greater than 3000 nM; in assay [3], greater than 3000 nM. As to `C=CC(=O)N1CCN(c2c(C#N)c(=O)n(-c3ccccc3C(C)C)c3cc(-c4c(C)ccc5[nH]ncc45)c(Cl)cc23)[C@@H](C)C1` [Compound I-2-1], the half-maximal inhibitory concentration (IC50) in assay [1] (NCI-H358, 72 h, numeric values) was 1150 nM; in assay [2], greater than 3000 nM; in assay [3] it was greater than 3000 nM.

Compound `C=CC(=O)N1CCN(c2c(C#N)c(=O)n(-c3ccccc3C(C)C)c3cc(-c4cc(N)ccc4F)c(Cl)cc23)[C@@H](C)C1` [Compound I-13] registered a half-inhibitory concentration (IC50) in assay [1] (NCI-H358, 72 h, class symbols) of 100 to 1000 nM.

The compound `C=CC(=O)N1CCN(c2c(C#N)c(=O)n(-c3ccccc3C(C)C)c3cc(-c4coc5ccccc45)c(Cl)cc23)[C@@H](C)C1` [Compound I-51] showed an IC50 in assay [1] (NCI-H358, 72 h, class symbols) of 100 to 1000 nM.

As to `C=CC(=O)N1CCN(c2c(C#N)c(=O)n(-c3ccccc3C(C)C)c3cc(-c4cccc(N)c4F)c(Cl)cc23)[C@@H](C)C1` [Compound I-77], in assay [1] (NCI-H358, 72 h, class symbols), the IC50 was 100 to 1000 nM. For the compound `C=CC(=O)N1CCN(c2c(C#N)c(=O)n(-c3ccccc3C(C)C)c3cc(-c4cccc5c4oc4ccccc45)c(Cl)cc23)[C@@H](C)C1` [Compound I-20], the IC50 in assay [1] (NCI-H358, 72 h, class symbols) is 100 to 1000 nM.

Compound `C=CC(=O)N1CCN(c2c(C#N)c(=O)n(-c3ccccc3C(C)C)c3cc(-c4ccccc4C#N)c(Cl)cc23)[C@@H](C)C1` [Compound I-19] yielded a concentration for half-maximal inhibition (IC50) in assay [1] (NCI-H358, 72 h, class symbols) greater than 1000 nM. Still for that read-out and setting: in the case of `C=CC(=O)N1CCN(c2c(C#N)c(=O)n(-c3ccccc3C(C)C)c3cc(-c4cc(Cl)cc(C)c4N)c(Cl)cc23)[C@@H](C)C1` [Compound I-76] it was less than 100 nM. The same measure, in the same setting: in the case of `C=CC(=O)N1CCN(c2c(C#N)c(=O)n(-c3ccccc3C(C)C)c3cc(-c4cc(C)cc(Cl)c4N)c(Cl)cc23)[C@@H](C)C1` [Compound I-80] it was less than 100 nM.
